These compounds were tested against T1, human β-Secretase (soluble part, AA 1-AA 460, sBACE-Fc) (Homo sapiens, UniProt P56817) (assay: TR-FRET assay (β-secretase enzyme)).
T1 construct: The soluble part of the human β-Secretase (AA 1-AA 460) was cloned; made in house
Type: biochemical
Protocol: The enzyme used in the IGEN Cleavage-, Fluorescent-, TR-FRET- and BiaCore assays is described as follows:
The soluble part of the human β-Secretase (AA 1-AA 460) was cloned into the ASP2-Fc10-1-IRES-GFP-neoK mammalian expression vector. The gene was fused to the Fc domain of IgG1 (affinity tag) and stably cloned into SEEK 293 cells. Purified sBACE-Fc is stored in Tris buffer, pH 9.2 and has a purity of 95%.
Enzyme was diluted to 6 μg/mL and the substrate (Europium)[…](Qsy7) to 200 nM in reaction buffer (NaAcetate, chaps, triton x-100, EDTA pH 4.5). Compounds were diluted to the desired concentration in dimethyl sulfoxide (final dimethyl sulfoxide concentration in assay is 5%). […] Enzyme (9 μL) and 1 μL of compound in dimethyl sulfoxide was added to the plate, mixed and pre-incubated for 10 min. Substrate (10 μL) was added and the reaction proceeded in the dark for 15 min at RT. The reaction was stopped with the addition of 7 μL NaAcetate, pH 9. The fluorescence of the product was measured on a Victor II plate reader with an excitation wavelength of 340 nm and an emission wavelength of 615 nm. […] The dimethyl sulfoxide control defined the 100% activity level and 0% activity was defined by exclusion of the enzyme (using reaction buffer instead).

T1 sequence (P56817 22-460): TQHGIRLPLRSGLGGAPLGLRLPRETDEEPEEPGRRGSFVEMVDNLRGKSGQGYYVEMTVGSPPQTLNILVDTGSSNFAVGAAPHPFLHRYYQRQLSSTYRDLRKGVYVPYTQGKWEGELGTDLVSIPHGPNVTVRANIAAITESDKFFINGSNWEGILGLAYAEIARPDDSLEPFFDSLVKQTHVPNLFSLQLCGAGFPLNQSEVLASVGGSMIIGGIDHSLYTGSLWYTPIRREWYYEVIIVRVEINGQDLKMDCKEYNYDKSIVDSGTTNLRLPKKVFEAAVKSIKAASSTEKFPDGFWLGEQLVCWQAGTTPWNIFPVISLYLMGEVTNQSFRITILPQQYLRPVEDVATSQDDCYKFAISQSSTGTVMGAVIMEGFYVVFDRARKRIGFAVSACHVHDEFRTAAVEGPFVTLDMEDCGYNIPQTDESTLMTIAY

Row | Compound | IC50 [nM]
1 | CN1C(=O)C(c2ccc(S(F)(F)(F)(F)F)cc2)(c2ccc(F)c(-c3cccnc3)c2)N=C1N (centres unmarked) [Example 24, 2-Amino-5-(4-fluoro-3-pyridin-3-ylphenyl)-3-methyl-5-[4-(pentafluoro-λ^6-sulfanyl)phenyl]-3,5-dihydro-4H-imidazol-4-one] | 53
2 | CN1C(=O)C(c2ccc(S(F)(F)(F)(F)F)cc2)(c2ccc(F)c(-c3cccnc3F)c2)N=C1N (centres unmarked) [Example 28, 2-amino-5-[4-fluoro-3-(2-fluoropyridin-3-yl)phenyl]-3-methyl-5-[4-(pentafluoro-λ^6-sulfanyl)phenyl]-3,5-dihydro-4H-imidazol-4-one 0.25 acetate] | 69
3 | COc1cncc(-c2cc(C3(c4ccc(S(F)(F)(F)(F)F)cc4)N=C(N)N(C)C3=O)ccc2F)c1 (single isomer, unassigned) [26 isomer 1] | 13
4 | COc1cncc(-c2cc(C3(c4cccc(S(F)(F)(F)(F)F)c4)N=C(N)N(C)C3=O)ccc2F)c1 (centres unmarked) [Example 51, 2-Amino-5-[4-fluoro-3-(5-methoxypyridin-3-yl)phenyl]-[3-methyl-5-3-(pentafluoro-6-sulfanyl)phenyl]-3,5-dihydro-4H-imidazol-4-one] | 305
5 | COc1ccc(F)c(-c2cccc(C3(c4ccc(S(F)(F)(F)(F)F)cc4)N=C(N)N(C)C3=O)c2)c1 (centres unmarked) [Example 38, 2-amino-5-(2′-fluoro-5′-methoxybiphenyl-3-yl)-3-methyl-5-[4-(pentafluoro-λ^6 sulfanyl)phenyl]-3,5-dihydro-4H-imidazol-4-one] | 71

From patent US20090233943A9, “NEW COMPOUNDS 835” (priority 2007, published 2009)
